One may read the IC50 as the concentration that inhibits the measured activity by half. Lower therefore signals higher potency.

Structures are written as SMILES.

A short description of this experiment: Inhibition of Con A-induced BALB/c mouse T cell proliferation after 48 hrs by [3H]-thymidine incorporation assay. In kind it is functional, tissue-based. In general terms: Dividing cells build labelled thymidine or BrdU into new DNA.

Take `C[C@@H]1C(=O)C2=C(COC2=O)[C@@H]2C[C@@](C)(CO)C[C@H]12`: it took 12.3 µM to reach half-maximal inhibition (IC50).
To `C[C@@]12CO[C@]3(C1)c1coc(=O)cc1O[C@H](CO)[C@H]3C2` belongs 6.6 µM.

The values are drawn from ChEMBL document CHEMBL4665762, “Conosiligins A-D, Ring-Rearranged Tremulane Sesquiterpenoids from Conocybe siliginea” (J Nat Prod, 2020).
